# Values of other authors, collected in US20070213409A1, “USE OF PREPARATIONS FOR SKIN ENZYME PROTECTION” (BEIERSDORF AG, priority 2005, published 2007).
# Where a name gives a salt, the structure may show the parent alone.
# Tests used:
# [1] = system: desquamation (SCCE and SCTE serine proteases)
# [2] = system: stratum corneum chymotryptic enzyme (SCCE); conditions: competitive inhibition; associated with reduced desquamation
# [3] = system: stratum corneum tryptic enzyme (SCTE); conditions: competitive inhibition; associated with reduced desquamation
molecule,measurement,setting,value
aprotinin,skin flakes in vivo after topical application,[1],more skin flakes
CC(C)CCC[C@@H](C)[C@H]1CC[C@H]2[C@@H]3CC=C4C[C@@H](OS(=O)(=O)O)CC[C@]4(C)[C@H]3CC[C@]12C [cholesterol-3 sulfate],effect on activity of SCCE,[2],reduces
same,effect on activity of SCTE,[3],reduces
CC(=O)N[C@@H](CC(C)C)C(=O)N[C@@H](CC(C)C)C(=O)N[C@H](C=O)CCCNC(=N)N [leupeptin],skin flakes in vivo after topical application,[1],more skin flakes
